Values quoted from earlier work in patent publication US20020019373A1, “Combinations of bisphosphonates and estrogenic agents” (American Home Products Corporation, priority 2000, published 2002).

System: Paget's disease of the bone
Conditions: approved by the FDA for Paget's disease of the bone (30-mg tablets)

Question: For O=P(O)(O)C(O)(Cc1cccnc1)P(=O)(O)O [Risedronate], which “effectiveness in clinical trials” value is on record?
Answer: effective
